Laboratory results: the SangsterLogP compilation

Test: method code SF-AS, from DOI: 10.1006/pest.1994.1057

| Compound | logP |
| --- | --- |
| N#CN=C1NCCN1Cc1ccc(Cl)nc1 | 0.77 |
| O=[N+]([O-])/C=C1/NCCN1Cc1cccnc1 | -1.02 |
| O=[N+]([O-])C=C1NCCN1CCc1ccc(Cl)nc1 | -0.23 |
| O=[N+]([O-])C=C1NCCN1Cc1ccccn1 | -0.87 |
| O=[N+]([O-])C=C1SCCN1Cc1ccc(Cl)nc1 | 0.65 |
| O=[N+]([O-])/C=C1\NCCN1Cc1ccccc1 | 0.33 |
| O=[N+]([O-])C=C1NCCCN1Cc1ccc(Cl)nc1 | -0.62 |
| O=[N+]([O-])N=C1NCCN1Cc1cccnc1 | -0.19 |
| O=[N+]([O-])C=C1NCCN1Cc1ccc(Cl)cc1 | 0.99 |
| O=[N+]([O-])C=C1NCCN1Cc1ccncc1 | -1.05 |
| O=[N+]([O-])/C=C1\NCCN1Cc1ccc(Cl)nc1 | -0.19 |
| O=[N+]([O-])C=C1NCCN1c1ccc(Cl)nc1 | -0.23 |
| CN1CCN(Cc2ccc(Cl)nc2)C1=N[N+](=O)[O-] | 0.26 |
| Cc1ccc(CN2CCNC2=C[N+](=O)[O-])cn1 | -0.59 |
